Laboratory results reported in patent US12077503B2, “Substituted cyclic amides and their use as herbicides” (FMC CORPORATION, priority 2015, dated 2024).

How the values were obtained:
Assay type in all cases: in vivo
[1] = tested on: Kochia (Kochia scoparia); experiment: Test A preemergence; conditions: Bassia scoparia, pre-emergence, 240 h, 0 to 100 scale where 0 is no effect and 100 is complete control, read-out: Kochia plant response rating; for pest or weed control at 31 g/ha: 31 g ai/ha, Preemergence; for pest or weed control at 125 g/ha: 125 g ai/ha, preemergence, approx. 10 d
Summary of the method: (§1)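 Treatment is preemergence as a directed soil spray after planting, or postemergence at the one- to two-leaf stage, with test chemical in a non-phytotoxic solvent mixture plus surfactant. Plants stay in the greenhouse about 10 d before visual injury scoring on a 0 to 100 scale versus untreated controls.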

[2] = tested on: barnyardgrass (Echinochloa crus-galli); experiment: Test A preemergence; conditions: Echinochloa crus-galli, pre-emergence, 240 h, Preemergence; for pest or weed control at 31 g/ha: 31 g ai/ha, 0 to 100 scale where 0 is no effect and 100 is complete control, read-out: Barnyardgrass plant response rating; for pest or weed control at 125 g/ha: 125 g ai/ha, visual injury rating after approximately 10 d, read-out: Barnyardgrass plant response rating (0 to 100 scale, 0 is no effect, 100 is complete control)
Summary of the method: as §1

[3] = tested on: giant foxtail (Setaria faberii); experiment: Test A preemergence; conditions: Setaria faberi, pre-emergence, 240 h, Preemergence; for pest or weed control at 31 g/ha: 31 g ai/ha, 0 to 100 scale where 0 is no effect and 100 is complete control, read-out: Foxtail, Giant plant response rating; for pest or weed control at 125 g/ha: 125 g ai/ha, visual injury rating after approximately 10 d, read-out: Foxtail, Giant plant response rating (0 to 100 scale, 0 is no effect, 100 is complete control)
Summary of the method: as §1

[4] = tested on: pigweed (Amaranthus retroflexus); experiment: Test A preemergence; conditions: Amaranthus retroflexus, pre-emergence, 240 h, 0 to 100 scale where 0 is no effect and 100 is complete control, read-out: Pigweed plant response rating; for pest or weed control at 31 g/ha: 31 g ai/ha, Preemergence; for pest or weed control at 125 g/ha: 125 g ai/ha, preemergence, approx. 10 d
[5] = tested on: ragweed (common ragweed, Ambrosia elatior); experiment: Test A preemergence; conditions: Ambrosia artemisiifolia, pre-emergence, 240 h, 0 to 100 scale where 0 is no effect and 100 is complete control, read-out: Ragweed plant response rating; for pest or weed control at 31 g/ha: 31 g ai/ha, Preemergence; for pest or weed control at 125 g/ha: 125 g ai/ha, preemergence, approx. 10 d
Summary of the method: as §1

[6] = tested on: ryegrass, Italian (Italian ryegrass, Lolium multiflorum); experiment: Test A preemergence; conditions: Lolium multiflorum, pre-emergence, 240 h, 0 to 100 scale where 0 is no effect and 100 is complete control, read-out: Ryegrass, Italian plant response rating; for pest or weed control at 31 g/ha: 31 g ai/ha, Preemergence; for pest or weed control at 125 g/ha: 125 g ai/ha, preemergence, approx. 10 d
Summary of the method: as §1

[7] = tested on: Galium (catchweed bedstraw, Galium aparine); experiment: Test A postemergence; conditions: Galium, post-emergence, 240 h; for pest or weed control at 125 g/ha: 125 g ai/ha, postemergence, visual injury on 0 to 100 scale (0 no effect, 100 complete control), approx. 10 d, read-out: Galium plant response rating; for pest or weed control at 31 g/ha: Postemergence, 31 g ai/ha, visual injury after approx. 10 d, 0 to 100 scale, 0 no effect, 100 complete control, read-out: Plant response rating, Galium
Summary of the method: as §1

[8] = tested on: Kochia (Kochia scoparia); experiment: Test A postemergence; conditions: Bassia scoparia, post-emergence, 240 h; for pest or weed control at 125 g/ha: 125 g ai/ha, postemergence, visual injury on 0 to 100 scale (0 no effect, 100 complete control), approx. 10 d, read-out: Kochia plant response rating; for pest or weed control at 31 g/ha: Postemergence, 31 g ai/ha, visual injury after approx. 10 d, 0 to 100 scale, 0 no effect, 100 complete control, read-out: Plant response rating, Kochia
Summary of the method: as §1

[9] = tested on: barnyardgrass (Echinochloa crus-galli); experiment: Test A postemergence; conditions: Echinochloa crus-galli, post-emergence, 240 h; for pest or weed control at 125 g/ha: 125 g ai/ha, postemergence, visual injury on 0 to 100 scale (0 no effect, 100 complete control), approx. 10 d, read-out: Barnyardgrass plant response rating; for pest or weed control at 31 g/ha: Postemergence, 31 g ai/ha, visual injury after approx. 10 d, 0 to 100 scale, 0 no effect, 100 complete control, read-out: Plant response rating, Barnyardgrass
Summary of the method: as §1

[10] = tested on: blackgrass (Alopecurus myosuroides); experiment: Test A postemergence; conditions: Alopecurus myosuroides, post-emergence, 240 h; for pest or weed control at 125 g/ha: 125 g ai/ha, postemergence, visual injury on 0 to 100 scale (0 no effect, 100 complete control), approx. 10 d, read-out: Blackgrass plant response rating; for pest or weed control at 31 g/ha: Postemergence, 31 g ai/ha, visual injury after approx. 10 d, 0 to 100 scale, 0 no effect, 100 complete control, read-out: Plant response rating, Blackgrass
Summary of the method: as §1

[11] = tested on: corn (Zea mays); experiment: Test A postemergence; conditions: Zea mays, post-emergence, 240 h; for plant injury at 125 g/ha: 125 g ai/ha, postemergence, visual injury on 0 to 100 scale (0 no effect, 100 complete control), approx. 10 d, read-out: Corn plant response rating; for Corn plant response rating (crop injury, 0 = no effect, 100 = complete kill) at 31 g/ha: Postemergence, 31 g ai/ha, visual injury after approx. 10 d, 0 to 100 scale, 100 complete control
Summary of the method: as §1

[12] = tested on: giant foxtail (Setaria faberii); experiment: Test A postemergence; conditions: Setaria faberi, post-emergence, 240 h; for pest or weed control at 125 g/ha: 125 g ai/ha, postemergence, visual injury on 0 to 100 scale (0 no effect, 100 complete control), approx. 10 d, read-out: Foxtail, Giant plant response rating; for pest or weed control at 31 g/ha: Postemergence, 31 g ai/ha, visual injury after approx. 10 d, 0 to 100 scale, 0 no effect, 100 complete control, read-out: Plant response rating, Foxtail, Giant
Summary of the method: as §1

[13] = tested on: pigweed (Amaranthus retroflexus); experiment: Test A postemergence; conditions: Amaranthus retroflexus, post-emergence, 240 h; for pest or weed control at 125 g/ha: 125 g ai/ha, postemergence, visual injury on 0 to 100 scale (0 no effect, 100 complete control), approx. 10 d, read-out: Pigweed plant response rating; for pest or weed control at 31 g/ha: Postemergence, 31 g ai/ha, visual injury after approx. 10 d, 0 to 100 scale, 0 no effect, 100 complete control, read-out: Plant response rating, Pigweed
Summary of the method: as §1

[14] = tested on: ragweed (common ragweed, Ambrosia elatior); experiment: Test A postemergence; conditions: Ambrosia artemisiifolia, post-emergence, 240 h; for pest or weed control at 125 g/ha: 125 g ai/ha, postemergence, visual injury on 0 to 100 scale (0 no effect, 100 complete control), approx. 10 d, read-out: Ragweed plant response rating; for pest or weed control at 31 g/ha: Postemergence, 31 g ai/ha, visual injury after approx. 10 d, 0 to 100 scale, 0 no effect, 100 complete control, read-out: Plant response rating, Ragweed
Summary of the method: as §1

[15] = tested on: ryegrass, Italian (Italian ryegrass, Lolium multiflorum); experiment: Test A postemergence; conditions: Lolium multiflorum, post-emergence, 240 h; for pest or weed control at 125 g/ha: 125 g ai/ha, postemergence, visual injury on 0 to 100 scale (0 no effect, 100 complete control), approx. 10 d, read-out: Ryegrass, Italian plant response rating; for pest or weed control at 31 g/ha: Postemergence, 31 g ai/ha, visual injury after approx. 10 d, 0 to 100 scale, 0 no effect, 100 complete control, read-out: Plant response rating, Ryegrass, Italian
Summary of the method: as §1

[16] = tested on: wheat (Triticum aestivum); experiment: Test A postemergence; conditions: Triticum aestivum, post-emergence, 240 h; for plant injury at 125 g/ha: 125 g ai/ha, postemergence, visual injury on 0 to 100 scale (0 no effect, 100 complete control), approx. 10 d, read-out: Wheat plant response rating; for plant injury at 31 g/ha: Postemergence, 31 g ai/ha, visual injury after approx. 10 d, 0 to 100 scale, 0 no effect, 100 complete control, read-out: Plant response rating, Wheat
Summary of the method: as §1

[17] = tested on: barnyardgrass (Echinochloa crus-galli); experiment: Test B flooded paddy test; conditions: Echinochloa crus-galli, 250 g ai/ha, Flood; 0 to 100 scale where 0 is no effect and 100 is complete control; read-out: Barnyardgrass plant response rating
Summary of the method: (§2)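 Compound goes directly into floodwater once pots are flooded 3 cm above soil, targeting plants at two leaves; the water depth is then held for the test duration. Plants sit 13–15 d in a greenhouse and are rated visually, 100 denoting complete control.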

[18] = tested on: ducksalad (Heteranthera limosa); experiment: Test B flooded paddy test; conditions: Heteranthera limosa, 250 g ai/ha, Flood; 0 to 100 scale where 0 is no effect and 100 is complete control; read-out: Ducksalad plant response rating
Summary of the method: as §2

[19] = tested on: rice (Oryra sativa); experiment: Test B flooded paddy test; conditions: Oryza sativa, 250 g ai/ha, Flood; 0 to 100 scale where 0 is no effect and 100 is complete control; read-out: Rice plant response rating
Summary of the method: as §2

[20] = tested on: sedge, umbrella (small-flower umbrella sedge, Cyperus difformis); experiment: Test B flooded paddy test; conditions: Cyperus difformis, 250 g ai/ha, Flood; 0 to 100 scale where 0 is no effect and 100 is complete control; read-out: Sedge, Umbrella plant response rating
Summary of the method: as §2

## COc1cccc([C@H]2CNC(=O)[C@@H]2C(=O)Nc2cccc(F)c2F)c1F [Compound 1061]
[1]
  pest or weed control at 31 g/ha: 0%
  pest or weed control at 125 g/ha: 0%
[2]
  pest or weed control at 31 g/ha: 40%
  pest or weed control at 125 g/ha: 80%
[3]
  pest or weed control at 31 g/ha: 20%
  pest or weed control at 125 g/ha: 70%
[4]
  pest or weed control at 31 g/ha: 0%
  pest or weed control at 125 g/ha: 0%
[5]
  pest or weed control at 31 g/ha: 0%
  pest or weed control at 125 g/ha: 0%
[6]
  pest or weed control at 31 g/ha: 0%
  pest or weed control at 125 g/ha: 0%
[7]
  pest or weed control at 125 g/ha: 0%
  pest or weed control at 31 g/ha: 0%
[8]
  pest or weed control at 125 g/ha: 0%
  pest or weed control at 31 g/ha: 0%
[9]
  pest or weed control at 125 g/ha: 80%
  pest or weed control at 31 g/ha: 50%
[10]
  pest or weed control at 125 g/ha: 0%
  pest or weed control at 31 g/ha: 0%
[11]
  plant injury at 125 g/ha: 0%
  Corn plant response rating (crop injury, 0 = no effect, 100 = complete kill) at 31 g/ha: 0%
[12]
  pest or weed control at 125 g/ha: 20%
  pest or weed control at 31 g/ha: 0%
[13]
  pest or weed control at 125 g/ha: 0%
  pest or weed control at 31 g/ha: 0%
[14]
  pest or weed control at 125 g/ha: 0%
  pest or weed control at 31 g/ha: 0%
[15]
  pest or weed control at 125 g/ha: 0%
  pest or weed control at 31 g/ha: 0%
[16]
  plant injury at 125 g/ha: 0%
  plant injury at 31 g/ha: 0%
[17]
  pest or weed control at 250 g/ha: 60%
[18]
  pest or weed control at 250 g/ha: 95%
[19]
  pest or weed control at 250 g/ha: 15%
[20]
  pest or weed control at 250 g/ha: 0%

## Cc1ccncc1NC(=O)[C@H]1C(=O)N(C)C[C@@H]1c1cccc(C(F)(F)F)c1 [Compound 1069]
[1]
  pest or weed control at 31 g/ha: 0%
  pest or weed control at 125 g/ha: 0%
[2]
  pest or weed control at 31 g/ha: 0%
  pest or weed control at 125 g/ha: 0%
[3]
  pest or weed control at 31 g/ha: 0%
  pest or weed control at 125 g/ha: 50%
[4]
  pest or weed control at 31 g/ha: 0%
  pest or weed control at 125 g/ha: 0%
[5]
  pest or weed control at 31 g/ha: 0%
  pest or weed control at 125 g/ha: 0%
[6]
  pest or weed control at 31 g/ha: 0%
  pest or weed control at 125 g/ha: 0%
[7]
  pest or weed control at 125 g/ha: 0%
  pest or weed control at 31 g/ha: 0%
[8]
  pest or weed control at 125 g/ha: 0%
  pest or weed control at 31 g/ha: 0%
[9]
  pest or weed control at 125 g/ha: 0%
  pest or weed control at 31 g/ha: 0%
[10]
  pest or weed control at 125 g/ha: 0%
  pest or weed control at 31 g/ha: 0%
[11]
  plant injury at 125 g/ha: 0%
  Corn plant response rating (crop injury, 0 = no effect, 100 = complete kill) at 31 g/ha: 0%
[12]
  pest or weed control at 125 g/ha: 0%
  pest or weed control at 31 g/ha: 0%
[13]
  pest or weed control at 125 g/ha: 0%
  pest or weed control at 31 g/ha: 0%
[14]
  pest or weed control at 125 g/ha: 0%
  pest or weed control at 31 g/ha: 0%
[15]
  pest or weed control at 125 g/ha: 0%
  pest or weed control at 31 g/ha: 0%
[16]
  plant injury at 125 g/ha: 0%
  plant injury at 31 g/ha: 0%
[17]
  pest or weed control at 250 g/ha: 20%
[18]
  pest or weed control at 250 g/ha: 35%
[19]
  pest or weed control at 250 g/ha: 0%
[20]
  pest or weed control at 250 g/ha: 0%
